Molecules are shown by their SMILES. Values after ≈ are worked out from the molar mass of the structure shown. Like-named read-outs stand apart in the source and are kept apart here.

The values below come from patent US4501744A, “Substituted-aza-cytosine compounds and anti-viral uses thereof” (ens BIO LOGICALS Inc., priority 1983, dated 1985).

The test system of data set [1] is herpes simplex virus (HSV). The note with it: disclosed in U.S. Pat. No. 4,347,360; cited from earlier work.
The next data set can be described thus: Toxicity to host cells. The class given is cell-based, human. As to conditions: in the HSV test; human fetal fibroblasts; read-out: concentration up to which no evidence of toxicity was shown.
Data set [2] concerns herpes simplex virus (HSV). Briefly: Plaque titration: reduction of plaque size and plaque number of herpes simplex virus in human fetal fibroblasts. The class given is cell-based. As to conditions: for IC25 / IC50 / IC75: Fibroblast, human fetal fibroblasts, 48 h. As to the method: Herpes simplex virus (HSV) strains were grown and titrated at 36° C. in human fetal fibroblasts derived from fetal tissues, and used for virus work before the tenth passage. Cells were grown and maintained in basal medium Eagle (BME; Auto-Pow, Flow Laboratories) supplemented with 0.112% sodium bicarbonate, 2 mM 1-glutanine, 2 mg neomycin per 100 ml and 5-20% calf serum. 5% BME, as described hereafter, indicates medium containing 5 ml of calf serum in a total volume of 100 ml.
The titer of the HSV strains is determined by a plaque titration method (Roizman & Roane, "Virology", 15, 75-79, 1961). Tissue culture dishes are seeded with cells and used for assays when approximately 75% monolayer. Volumes (0.2 ml) of logarithmic dilutions of the strain are inoculated onto each of two tissue culture dishes, and adsorbed for 1 hr. with intermittent shaking, the inoculum removed, and 2 ml of 5% BME containing 0.5% human immune serum globulin added. After a 48 hour incubation period at 36° C. in a 5% CO2 atmosphere, the overlay medium is removed and the cell sheets stained with a 0.05% aqueous crystal violet solution. The number of plaques is counted, the duplicates averaged, and the number of plaque-forming units calculated.
The compounds are tested for activity against the herpes simplex strains using a stock solution of each compound freshly prepared by dissolving 1.2 mg in BME. Appropriate dilution of each compound are made in 5% BME containing 0.5% human immune serum globulin just before usage.
Tissue culture dishes (35 by 10 mm) with approximately 75% cell monolayer are inoculated with approximately 50 plaque-forming units of HSV per 0.2 ml, and the virus adsorbed for 1 hour, with intermittent shaking. After removal of the inoculum, 2 ml of 5% BME with 0.5% immune globulin and three-fold dilutions of the appropriate drug are added. One set of dishes receives no drug and is used as a control. After a 48-hour incubation period, at 36° C. in a 5% CO2 atmosphere, the overlay medium is removed, the cells stained as described above, and plaques counted. The counts of replicate plates are averaged, and the number of plaques emerging in the presence of each drug dilution is calculated. The reduction in plaque size caused by the concentration of the drug, as compared with the relevant control, is also measured, visually. […] A reduction in the area of the growing plaque indicates inhibition of plaque growth, i.e. inhibition of viral reproduction, caused by the drug.

The next data set concerns cytomegalovirus (CMV). Briefly: CMV plaque (microplaque/ELISA) assay in human fetal fibroblast (lung) HFF cells. The class given is cell-based. As to conditions: at a dosage level non-toxic to mammalian cells. The protocol: The compounds of example 3, (5-aza-C*) was tested in vitro for activity against cytomegalovirus, CMV, in mammalian cells. Human fetal fibroblast (lung) HFF cells were used, in generally standard viral plaque titration methods.
Human fetal fibroblast (lung) HFF cells were used, in generally standard viral plaque titration methods. The cells were grown and maintained in Basal Medium Eagle (BME) supplemented with 0.112% sodium bicarbonate, 2 mM L-glutamine, 2 mg % neomycin and 20% (vol/vol) calf serum.
A viral plaque titration method (Roizman & Roane, 1961) was used to determine the virus titre of the CMV. 35 mm tissue culture plates were seeded with HFF 36 P5 and grown to 50-70% monolayer. […]
The cells were incubated for 72 hours at 37° C. in 5% carbon dioxide atmosphere. At 75 hours, the number of CMV infected foci (microplaques) was quantitated using enzyme linked immunosorbent assay (ELISA) using as an enzyme tag horseradish peroxidase and DAB substrate so as to stain the infected foci with a brown precipitate. […]
CMV-positive human serum was diluted 1:10 with PBS, and 0.2 ml of the diluted serum was put in each plate and the plate shaken for 30 minutes. […] Plaques were counted, and numbers of plaques per microscopic field determined.
The reading of the CMV assay was done by comparing no-drug controls to the drug treated plates. […]
In general terms: ELISA stands for enzyme-linked immunosorbent assay.

Data set [3] relates to human fetal fibroblasts / mammalian cells. Briefly: Toxicity to host cells. The note with it: at the dosage level active against HSV and CMV. The data set is classed as cell-based.
[4] abbreviates: read-out: concentration reducing plaque numbers by 25%.
The mark [5] stands for this setting: read-out: concentration reducing plaque numbers by 50%.
The mark [6] stands for this setting: read-out: concentration reducing plaque size by 25%.
Where [7] appears, read: read-out: concentration reducing plaque size by 50%.

For the molecule `Nc1ncnc2c1ncn2COC(CO)CO` [9-[[2-hydroxy-1-(hydroxymethyl)ethoxy]-methyl]adenine], in data set [1], the “activity against herpes simplex virus (in words)” value is “active against herpes simplex virus”.

In the case of `O=c1[nH]c(=O)n(COC(COCc2ccccc2)COCc2ccccc2)cc1F` [5F-benzyl-U*, 1-[[2-benzyloxy-1-(benzyloxymethyl)ethoxy]methyl]-5-fluorouracil], in “Toxicity to host cells”, the MNTC at 48 h was above 110 µg/mL. Further, the “activity against HSV (in words)” value in data set [2] was “showed activity against HSV”. Further, the figures for the IC25 in data set [2] (setting [4]) and in data set [2] (setting [6]) were 70 µg/mL (≈ 169 µM) and 10 µg/mL (≈ 24.1 µM), respectively. Besides, the IC50 in data set [2] (setting [5]) is 110 µg/mL (≈ 265 µM); in data set [2] (setting [7]), 50 µg/mL (≈ 121 µM).

`Nc1ncn(COC(CO)CO)c(=O)n1` [5-aza-C*, 5-aza-1-[[1-hydroxymethyl-[2-hydroxy]-ethoxy]methyl]cytosine]: the “activity against CMV (in words)” value in the data set on cytomegalovirus (CMV) is recorded as “active”. Further, in “Toxicity to host cells”, the MNTC at 48 h is above 304 µg/mL. The “toxicity to mammalian cells (in words)” value in data set [3] is “non-toxic to mammalian cells”. In addition, the “activity against HSV (in words)” value is “high activity against the HSV” in data set [2] and “active against herpes simplex virus HSV” in data set [2] (listed as 5-aza-1-[[1-hydroxymethyl(2-hydroxy)ethoxy]methyl]cytosine). Besides, the IC25 is 8 µg/mL (≈ 37 µM) in data set [2] (setting [4]) and 5 µg/mL (≈ 23.1 µM) in data set [2] (setting [6]). The IC50 in data set [2] (setting [5]) and in data set [2] (setting [7]) was 30 µg/mL (≈ 139 µM) each time. For the same molecule, the IC75 turned out to be 140 µg/mL (≈ 648 µM) in data set [2] (read-out: concentration reducing plaque numbers by 75%) and 110 µg/mL (≈ 509 µM) in data set [2] (read-out: concentration reducing plaque size by 75%).

With `Nc1ccn(COC(COCc2ccccc2)COCc2ccccc2)c(=O)n1` [dibenzyl-C*, 1-[[2-benzyloxy-1-(benzyloxymethyl)]ethoxymethyl]cytosine], the “activity against HSV (in words)” value in data set [2] is listed as “exhibited activity against HSV, but to a lesser extent”.
